Results taken from ChEMBL document CHEMBL1201862, “PubChem BioAssay data set” (2004).
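Step 1: Grow cells in 96-well plates. Step 2: Expose to compound for 48 hours at 5 concentrations. Step 3: Interpolate endpoints linearly; if unreached, use highest concentration. The concentration for 50% growth inhibition is given as GI50.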 The source made the active and inactive calls. No stated cut-off is given here; in the data, active = GI50 up to about 1.1 µM and inactive = higher.

Columns and labels:
Experiment in all cases: NCI-60 cell line screen, 48 h
[1] = test system: 786-0
[2] = test system: A498
[3] = test system: A549
[4] = test system: ACHN
[5] = test system: BT-549
[6] = test system: CAKI-1
[7] = test system: CCRF-CEM
[8] = test system: COLO 205
[9] = test system: DU-145
[10] = test system: EKVX
[11] = test system: HCC 2998
[12] = test system: HCT-116
[13] = test system: HCT-15
[14] = test system: HL-60
[15] = test system: HOP-62
[16] = test system: HT-29
[17] = test system: Hs-578T
[18] = test system: IGROV-1
[19] = test system: K562
[20] = test system: KM12
[21] = test system: LOX IMVI
[22] = test system: M14
[23] = test system: MCF7
[24] = test system: MDA-MB-231
[25] = test system: MDA-MB-435
[26] = test system: MDA-N
[27] = test system: MOLT-4
[28] = test system: Malme-3M
[29] = test system: NCI-H226
[30] = test system: NCI-H23
[31] = test system: NCI-H460
[32] = test system: NCI-H522
[33] = test system: NCI/ADR-RES
[34] = test system: OVCAR-3
[35] = test system: OVCAR-4
[36] = test system: OVCAR-5
[37] = test system: OVCAR-8
[38] = test system: PC-3
[39] = test system: RPMI-8226
[40] = test system: RXF 393
[41] = test system: SF-268
[42] = test system: SF-295
[43] = test system: SF-539
[44] = test system: SK-MEL-28
[45] = test system: SK-MEL-2
[46] = test system: SK-MEL-5
[47] = test system: SK-OV-3
[48] = test system: SN12C
[49] = test system: SNB-19
[50] = test system: SNB-75
[51] = test system: SR
[52] = test system: SW-620
[53] = test system: T47D
[54] = test system: U-251
[55] = test system: UACC-257
[56] = test system: UACC-62
[57] = test system: UO-31
[58] = test system: HOP-92
[59] = test system: TK-10

In the case of `CCC/N=C(/NC(=O)c1ccc(Cl)cc1)SC`, the GI50 [1] is reported as > 100 µM (inactive), the GI50 [2] is reported as 27.4 µM (inactive) and the GI50 [3] is reported as > 100 µM (inactive). For the same compound, the GI50 [4] was 39.8 µM (inactive), the GI50 [5] was 25.5 µM (inactive) and the GI50 [6] was > 100 µM (inactive). The GI50 [7] was > 100 µM (inactive), the GI50 [8] was > 100 µM (inactive) and the GI50 [9] was > 100 µM (inactive). For the same compound, the GI50 [10] was > 100 µM (inactive), the GI50 [11] was > 100 µM (inactive) and the GI50 [12] was > 100 µM (inactive). The GI50 [13] was 47.9 µM, the GI50 [14] was 58.7 µM (inactive) and the GI50 [15] was > 100 µM (inactive). For the same compound, the GI50 [16] was 97.3 µM (inactive), the GI50 [17] was 12.1 µM (inactive) and the GI50 [18] was > 100 µM (inactive). For the same compound, the GI50 [19] was 44.1 µM (inactive), the GI50 [20] was > 100 µM (inactive) and the GI50 [21] was > 100 µM (inactive). The GI50 [22] was > 100 µM (inactive), the GI50 [23] was 75.9 µM (inactive) and the GI50 [24] was > 100 µM (inactive). The GI50 [25] was > 100 µM (inactive), the GI50 [26] was > 100 µM (inactive) and the GI50 [27] was 58.7 µM (inactive). The GI50 [28] was > 100 µM (inactive), the GI50 [29] was 43.1 µM (inactive) and the GI50 [30] was 46.3 µM (inactive). For the same compound, the GI50 [31] was 90.6 µM (inactive), the GI50 [32] was 52 µM (inactive) and the GI50 [33] was > 100 µM (inactive). For the same compound, the GI50 [34] was 0.0473 µM (active), the GI50 [35] was 50.9 µM (inactive) and the GI50 [36] was > 100 µM (inactive). For the same compound, the GI50 [37] was > 100 µM (inactive), the GI50 [38] was 80.5 µM (inactive) and the GI50 [39] was 26.5 µM (inactive). For the same compound, the GI50 [40] was > 100 µM (inactive), the GI50 [41] was 88.9 µM (inactive) and the GI50 [42] was > 100 µM (inactive). The GI50 [43] was > 100 µM (inactive), the GI50 [44] was > 100 µM (inactive) and the GI50 [45] was > 100 µM (inactive). For the same compound, the GI50 [46] was 48.6 µM (inactive), the GI50 [47] was > 100 µM (inactive) and the GI50 [48] was > 100 µM (inactive). For the same compound, the GI50 [49] was 17.6 µM (inactive), the GI50 [50] was 11.4 µM (inactive) and the GI50 [51] was 36.8 µM (inactive). For the same compound, the GI50 [52] was > 100 µM (inactive), the GI50 [53] was 65.9 µM (inactive) and the GI50 [54] was > 100 µM (inactive). For the same compound, the GI50 [55] was 74.5 µM (inactive), the GI50 [56] was > 100 µM (inactive) and the GI50 [57] was 15 µM (inactive).

In the case of `Nc1ccc(CCSSCCc2ccc(N)cc2)cc1`, the GI50 [1] is reported as 17 µM (inactive), the GI50 [2] is reported as 32.1 µM (inactive) and the GI50 [3] is reported as 35.1 µM (inactive). For the same compound, the GI50 [4] was 29.6 µM (inactive), the GI50 [5] was 25.5 µM (inactive) and the GI50 [6] was 26.4 µM (inactive). The GI50 [7] was 1.38 µM (inactive), the GI50 [8] was 41.1 µM (inactive) and the GI50 [9] was 28.3 µM (inactive). The GI50 [10] was 53.5 µM (inactive), the GI50 [11] was 17.6 µM (inactive) and the GI50 [12] was 16.1 µM (inactive). For the same compound, the GI50 [13] was 23.4 µM, the GI50 [15] was 55.2 µM (inactive) and the GI50 [58] was 34.5 µM (inactive). The GI50 [16] was 21.8 µM (inactive), the GI50 [17] was 16.2 µM (inactive) and the GI50 [18] was 37.1 µM (inactive). The GI50 [19] was 6.4 µM (inactive), the GI50 [20] was 30.3 µM (inactive) and the GI50 [21] was 21.9 µM (inactive). The GI50 [22] was 30 µM (inactive), the GI50 [23] was 29.7 µM (inactive) and the GI50 [24] was 39.3 µM (inactive). For the same compound, the GI50 [25] was 26.9 µM (inactive), the GI50 [26] was 27.7 µM (inactive) and the GI50 [27] was 1.81 µM (inactive). The GI50 [28] was 12.2 µM (inactive), the GI50 [29] was 27.5 µM (inactive) and the GI50 [30] was 29.7 µM (inactive). For the same compound, the GI50 [31] was 25.7 µM (inactive), the GI50 [32] was 12.9 µM (inactive) and the GI50 [33] was 23.2 µM (inactive). The GI50 [34] was 31.6 µM (inactive), the GI50 [35] was 28.6 µM (inactive) and the GI50 [36] was 29.6 µM (inactive). For the same compound, the GI50 [37] was 28 µM (inactive), the GI50 [38] was 29.4 µM (inactive) and the GI50 [39] was 25.1 µM (inactive). The GI50 [40] was 21.8 µM (inactive), the GI50 [41] was 18.4 µM (inactive) and the GI50 [42] was 39 µM (inactive). For the same compound, the GI50 [43] was 24.9 µM (inactive), the GI50 [44] was 28.3 µM (inactive) and the GI50 [45] was 20.2 µM (inactive). For the same compound, the GI50 [46] was 19.8 µM (inactive), the GI50 [47] was 43.6 µM (inactive) and the GI50 [48] was 22.9 µM (inactive). The GI50 [49] was 50.7 µM (inactive), the GI50 [50] was 30.9 µM (inactive) and the GI50 [51] was 0.991 µM (active). For the same compound, the GI50 [52] was 30 µM (inactive), the GI50 [53] was 35.6 µM (inactive) and the GI50 [59] was 36.1 µM (inactive). The GI50 [54] was 19.6 µM (inactive), the GI50 [55] was 20 µM (inactive) and the GI50 [56] was 26.5 µM (inactive). The GI50 [57] was 22.7 µM (inactive).
